{"source": "patent US12374421B2", "about": "“Bioinformatic processes for determination of peptide binding” (priority 2013, dated 2025)", "key": {"RL9-pulsed splenocytes": {"tested_on": "RL9-pulsed splenocytes", "set-up": "species or system mice", "conditions": "mouse, in vivo"}, "MHC I molecules": {"tested_on": "MHC I molecules", "conditions": "in vivo; cited from earlier work"}}, "data": [{"sequence": "RYCINSASL (SEQ ID NO: 28419) [RL9]", "values": [{"measurement": "response pattern after immunization", "setting": "RL9-pulsed splenocytes", "value": "protective response pattern"}, {"measurement": "MHC I presentation", "setting": "MHC I molecules", "value": "presented on MHC I molecules"}]}]}
